Measurements: the NIST ThermoML archive (doi:10.1016/j.fluid.2012.09.037)

Assay: xn = mol fraction of the nth substance listed
Settings: 373.2 K, Liquid; for mass density: Vibrating tube method; for viscosity: Moving piston method

CCCCCCCCCC [decane] + CCCCCCCCCCCCCC
x1 = 1
Settings | mass density [kg/m3]
100 kPa | 667.1
1000 kPa | 668.4
2000 kPa | 669.6
3000 kPa | 670.9
4000 kPa | 672.1
5000 kPa | 673.4
6000 kPa | 674.5
7000 kPa | 675.7
8000 kPa | 676.9
9000 kPa | 678.1
10000 kPa | 679.2

CCCCCCCCCC [decane] + O=C=O
Settings | mass density [kg/m3] | viscosity [mPa·s]
1120 kPa, x2 = 0.075 | 669 | 0.35
1950 kPa, x2 = 0.124 | 671 | 0.33
3040 kPa, x2 = 0.192 | 672 | 0.29
4010 kPa, x2 = 0.246 | 674 | 0.27
5110 kPa, x2 = 0.313 | 676 | 0.25
6190 kPa, x2 = 0.367 | 677 | 0.22

CCCCCCCCCCCCCC [tetradecane] + CCCCCCCCCC
mass density [kg/m3]
Settings | x2 = 0 | x2 = 0.25 | x2 = 0.5 | x2 = 0.75
100 kPa | 705.4 | 697.8 | 689.1 | 679.1
1000 kPa | 706.5 | 698.8 | 690.3 | 680.3
2000 kPa | 707.6 | 699.9 | 691.5 | 681.6
3000 kPa | 708.6 | 701 | 692.6 | 682.7
4000 kPa | 709.6 | 702 | 693.7 | 683.9
5000 kPa | 710.7 | 703.1 | 694.8 | 685.1
6000 kPa | 711.6 | 704.1 | 695.9 | 686.2
7000 kPa | 712.6 | 705.2 | 697 | 687.3
8000 kPa | 713.6 | 706.2 | 698 | 688.4
9000 kPa | 714.6 | 707.2 | 699 | 689.5
10000 kPa | 715.5 | 708.2 | 700.1 | 690.6

CCCCCCCCCCCCCC [tetradecane] + O=C=O
Settings | mass density [kg/m3] | viscosity [mPa·s]
960 kPa, x2 = 0.07 | 707 | 0.6
2000 kPa, x2 = 0.135 | 709 | 0.55
2970 kPa, x2 = 0.198 | 710 | 0.51
4000 kPa, x2 = 0.261 | 711 | 0.47
4920 kPa, x2 = 0.307 | 713 | 0.44
5970 kPa, x2 = 0.358 | 714 | 0.41
